Source: US6403617B1, “Diaminopyridine-containing thiourea inhibitors of herpes viruses” (American Home Products Corp., priority 1998, dated 2002)
Values after ≈ are worked out from the molar mass of the structure shown.

Assays:
HCMV wild-type = test: HCMV yield assay; type: cell-based, Human Cytomegalovirus; details: human foreskin fibroblasts, reduction of virus yield by 50%; for IC50: Human betaherpesvirus 5, Fibroblast, read-out: IC50 (ug/ml) HCMV
Procedure: Yield assay. Monolayer cultures of human foreskin fibroblasts are infected with HCMV wild-type, typically at a multiplicity of infection equal to 0.2, in the presence of inhibitor compound (varying concentrations). At three days post-infection, total virus produced in these cultures (i.e. virus yield) is assessed by harvesting and titering the virus in 12-well plates of cultured human foreskin fibroblasts (done in the absence of inhibitor). Plaques are quantified at 2 weeks post-infection. An inhibitor of HCMV is identified by the reduction in titer of virus yield in the presence, compared to the titer in the absence of compound. In this assay, the relative anti-HCMV activity of an inhibitor is typically determined by calculating the IC50 or IC90 value, that is, the amount of compound required to reduce the virus yield by 50% or 90%, respectively. Table I describes IC50 data for compounds tested against HCMV.

HSV-1 = test: HSV Antiviral (ELISA) Assay; type: cell-based, herpes simplex virus type 1; details: Human alphaherpesvirus 1; Vero cells, HSV-1, about 24 hours post-infection; read-out: IC50 (ug/ml) HSV
Procedure: Vero cells (ATCC #CCL-81) are plated on 96-well tissue cultugre plates at 3.5×10^4 cells per 100 μl tissue culture DMEM (Dulbecco's modified Eagle media) supplemented with 2% fetal bovine serum (FBS) in each well. After overnight incubation @ 37° C. (in 5% CO2) and 30 minutes prior to infection with HSV-1 (multiplicity of infection equal to 0.006), cells are either untreated, or treated with test compound (multiple concentrations) or reference standard drug control. After approximately 24 hours post-infection incubation @ 37° C. (in 5% CO2), cells are fixed for ELISA assay. The primary antibody is murine anti-HSV glycoprotein D monoclonal primary antibody and the secondary antibody is goat anti-mouse IgG linked to β-galactosidase. Thus the extent of viral replication is determined by assessing β-galactosidase activity by quantifying the generation of the 4-methyl umbelliferone fluorescent cleavage product after addition of the methyl umbelliferyl-β-D-galactoside (Sigma #M1633) substrate on a microfluorimeter (365 nm for excitation and 450 nm for emission). Antiviral activity (IC50) of the test compound is determined by comparing the flourescence obtained in absence of compound to that obtained in the presence of compound.

VZV strain Ellen = test: VZV Antiviral (ELISA) Assay; type: cell-based, varicella-zoster virus; details: human foreskin fibroblast cells, three days; for inhibition at 10 µg/mL / IC50: Human alphaherpesvirus 3, 72 h; for inhibition at 10 µg/mL: read-out: % inhibition 10 ug/ml VZV, 10 ug/ml; for IC50: read-out: IC50 (ug/ml) VZV
Procedure: For the generation of stock VZV to be used in the assay, VZV strain Ellen (ATCC #VR-1367) is used to infect human foreskin fibroblast (HFF) cells at low multiplicity (less than 0.1) and incubated overnight at 37° C. in 5% CO2. After the overnight incubation, the mixture of uninfected and VZV-infected HFF infected cells are then harvested and added to each well of 96-well plates (3.5×10^4 cells in 100 μl DMEM supplemented with 2% FBS) which contain test compound or the reference standard drug control (in 100 μl DMEM supplemented with 2% FBS per well). These cells are incubated for three days at 37° C. in 5% CO2, then fixed for ELISA assay. The primary antibody is murine anti-VZV glycoprotein II monoclonal antibody (Applied Biosystems, Inc. #13-145-100) and the secondary antibody is goat anti-mouse IgG linked to β-galactosidase. Thus the extent of viral replication is determined by assessing β-galactosidase activity by quantifying the generation of the 4-methyl umbelliferone fluorescent cleavage product after addition of the methyl umbelliferyl-β-D-galactoside (Sigma #M1633) substrate on a microfluorimeter (365 nm for excitation and 450 nm for emission). Antiviral activity (IC50) of the test compound is determined by comparing the flourescence obtained in absence of compound to that obtained in the presence of compound.

Row | Molecule | IC50 (HCMV wild-type) [µg/mL] | IC50 (HSV-1) [µg/mL] | inhibition at 10 µg/mL (VZV strain Ellen) [%] | IC50 (VZV strain Ellen) [µg/mL] | IC50 (ug/ml) HCMV (HCMV wild-type) [µg/mL] | IC50 (ug/ml) VZV (VZV strain Ellen) [µg/mL]
1 | COc1cc(OC)c(NC(=S)Nc2ccc(NC(=O)c3ccccc3C)nc2)cc1Cl [Example 283, N-[5-[[[(5-Chloro-2,4-dimethoxyphenyl)amino]thioxomethyl]amino]-2-pyridinyl]-2-methylbenzamide] | 7 (≈ 15.3 µM) | 0.6 (≈ 1.31 µM) | 17 | > 10 | – | –
2 | COc1cc(OC)c(NC(=S)Nc2cccnc2NC(=O)c2ccco2)cc1Cl [Example 284, Furan-2-carboxylic acid {3-[3-(5-chloro-2,4-dimethoxy-phenyl)-thioureido]-pyridin-2-yl}-amide] | 0.4 (≈ 0.924 µM) | 3 (≈ 6.93 µM) | 100 | > 15 | – | –
3 | COc1cc(OC)c(NC(=S)Nc2ccc(NC(=O)c3ccccc3F)nc2)cc1Cl [Example 289, N-{5-[3-(5-Chloro-2,4-dimethoxy-phenyl)-thioureido]-pyridin-2-yl}-2-fluoro-benzamide] | > 10 | 0.6 (≈ 1.3 µM) | 30 | > 10 | – | –
4 | COc1cc(OC)c(NC(=S)Nc2cccnc2NC(=O)c2csnn2)cc1Cl [Example 498, [1,2,3]Thiadiazole-4-carboxylic acid {3-[3-(5-chloro-2,4-dimethoxy-phenyl)-thioureido]-pyridin-2-yl}-amide] | 0.14 (≈ 0.31 µM) | 6 (≈ 13.3 µM) | 14 | > 10 | – | –
5 | COc1cc(OC)c(NC(=S)Nc2ccc(NC(=O)c3ccccn3)nc2)cc1Cl [Example 499, Pyridine-2-carboxylic acid {5-[3-(5-chloro-2,4-dimethoxy-phenyl)-thioureido]-pyridin-2-yl}-amide] | 3 (≈ 6.76 µM) | 5 (≈ 11.3 µM) | 25 | > 10 | – | –
6 | COc1cc(OC)c(NC(=S)Nc2ccc(NC(=O)c3ccccc3F)cn2)cc1Cl [Example 507, N-{6-[3-(5-Chloro-2,4-dimethoxy-phenyl)-thioureido]-pyridin-3-yl}-2-fluoro-benzamide] | 1.2 (≈ 2.6 µM) | 10 (≈ 21.7 µM) | 90 | 4 (≈ 8.68 µM) | – | –
7 | COc1cc(OC)c(NC(=S)Nc2ccc(NC(=O)c3ccco3)cn2)cc1Cl [Example 512, Furan-2-carboxylic acid {6-[3-(5-chloro-2,4-dimethoxy-phenyl)-thioureido]-pyridin-3-yl}-amide] | 0.7 (≈ 1.62 µM) | 0.5 (≈ 1.16 µM) | 70 | 4 (≈ 9.24 µM) | – | –
8 | COc1cc(OC)c(NC(=S)Nc2ccc(NC(=O)c3csnn3)cn2)cc1Cl [Example 514, [1,2,3]Thiadiazole-4-carboxylic acid {6-[3-(5-chloro-2,4-dimethoxy-phenyl)-thioureido]-pyridin-3-yl}-amide] | 1.2 (≈ 2.66 µM) | 4 (≈ 8.87 µM) | 62 | > 10 | – | –
9 | O=C(Nc1ccc(NC(=S)NCc2cc(C(F)(F)F)cc(C(F)(F)F)c2)cn1)c1csnn1 [Example 815, N-{5-[({[3,5-bis(trifluoromethyl)benzyl]amino}carbothioyl)amino]-2-pyridinyl}-1,2,3-thiadiazole-4-carboxamide] | 0.0024 (≈ 0.00474 µM) | – | – | > 7.5 | – | –
10 | C[C@H](NC(=S)Nc1ccc(NC(=O)c2csnn2)nc1)c1cc(C(F)(F)F)cc(C(F)(F)F)c1 [Example 816, N-(5-{[({(1S)-1-[3,5-bis(trifluoromethyl)phenyl]ethyl}amino)carbothioyl]amino}-2-pyridinyl)-1,2,3-thiadiazole-4-carboxamide] | 0.0015 (≈ 0.00288 µM) | – | – | > 7.5 | – | –
11 | C[C@H](NC(=S)Nc1ccc(NC(=O)c2cscn2)nc1)c1cc(C(F)(F)F)cc(C(F)(F)F)c1 [Example 817, N-(5-{[({(1S)-1-[3,5-bis(trifluoromethyl)phenyl]ethyl}amino)carbothioyl]amino}-2-pyridinyl)-1,3-thiazole-4-carboxamide] | 0.001 (≈ 0.00192 µM) | – | – | > 7.5 | – | –
12 | CC(NC(=S)Nc1ccc(NC(=O)c2cscn2)nc1)c1cc(C(F)(F)F)ccc1F (stereo not shown) [Example 818, N-(5-{[({1-[2-fluoro-5-(trifluoromethyl)phenyl]ethyl}amino)carbothioyl]amino}-2-pyridinyl)-1,3-thiazole-4-carboxamide] | 0.0022 (≈ 0.00469 µM) | – | – | > 7.5 | – | –
13 | CC(NC(=S)Nc1ccc(NC(=O)c2cscn2)nc1)c1ccc(C(F)(F)F)cc1F (stereo not shown) [Example 819, N-(5-{[({1-[2-fluoro-4-(trifluoromethyl)phenyl]ethyl}amino)carbothioyl]amino}-2-pyridinyl)-1,3-thiazole-4-carboxamide] | 0.0022 (≈ 0.00469 µM) | – | – | > 7.5 | – | –
14 | CC(NC(=S)Nc1ccc(NC(=O)c2cscn2)nc1)c1cc(F)cc(C(F)(F)F)c1 (stereo not shown) [Example 820, N-(5-{[({1-[3-fluoro-5-(trifluoromethyl)phenyl]ethyl}amino)carbothioyl]amino}-2-pyridinyl)-1,3-thiazole-4-carboxamide] | 0.0013 (≈ 0.00277 µM) | – | – | 3.4 (≈ 7.24 µM) | – | –
15 | C[C@H](NC(=O)Nc1ccc(NC(=O)c2cscn2)nc1)c1cc(C(F)(F)F)cc(C(F)(F)F)c1 [Example 821, N-(5-{[({(1S)-1-[3,5-bis(trifluoromethyl)phenyl]ethyl}amino)carbonyl]amino}-2-pyridinyl)-1,3-thiazole-4-carboxamide] | 0.014 (≈ 0.0278 µM) | – | – | > 7.5 | – | –
16 | CC(NC(=S)Nc1ccc(NC(=O)c2cscn2)nc1)c1cccc(Br)c1 (stereo not shown) [Example 822, N-{5-[({[1-(3-bromophenyl)ethyl]amino}carbothioyl)amino]-2-pyridinyl}-1,3-thiazole-4-carboxamide] | 0.05 (≈ 0.108 µM) | – | – | > 7.5 | – | –
17 | CC(NC(=S)Nc1ccc(NC(=O)c2cscn2)nc1)c1ccccc1Br (stereo not shown) [Example 823, N-{5-[({[1-(2-bromophenyl)ethyl]amino}carbothioyl)amino]-2-pyridinyl}-1,3-thiazole-4-carboxamide] | 0.05 (≈ 0.108 µM) | – | – | > 7.5 | – | –
18 | CC(NC(=S)Nc1ccc(NC(=O)c2cscn2)nc1)c1cccc(C(F)(F)F)c1 (stereo not shown) [Example 824, N-(5-{[({1-[3-(trifluoromethyl)phenyl]ethyl}amino)carbothioyl]amino}-2-pyridinyl)-1,3-thiazole-4-carboxamide] | 0.004 (≈ 0.00886 µM) | – | – | 3.2 (≈ 7.09 µM) | – | –
19 | CC(NC(=S)Nc1ccc(NC(=O)c2cscn2)nc1)c1ccc(Cl)c(C(F)(F)F)c1 (stereo not shown) [Example 825, N-(5-{[({1-[4-chloro-3-(trifluoromethyl)phenyl]ethyl}amino)carbothioyl]amino}-2-pyridinyl)-1,3-thiazole-4-carboxamide] | 0.003 (≈ 0.00617 µM) | – | – | 6.12 (≈ 12.6 µM) | – | –
20 | CC(NC(=S)Nc1ccc(NC(=O)c2cscn2)nc1)c1ccc(Cl)c(F)c1 (stereo not shown) [Example 826, N-{5-[({[1-(4-chloro-3-fluorophenyl)ethyl]amino}carbothioyl)amino]-2-pyridinyl}-1,3-thiazole-4-carboxamide] | 0.02 (≈ 0.0459 µM) | – | – | 0.86 (≈ 1.97 µM) | – | –
21 | CC(NC(=S)Nc1ccc(NC(=O)c2cscn2)nc1)c1ccc(Cl)cc1F (stereo not shown) [Example 827, N-{5-[({[1-(4-chloro-2-fluorophenyl)ethyl]amino}carbothioyl)amino]-2-pyridinyl}-1,3-thiazole-4-carboxamide] | 0.026 (≈ 0.0596 µM) | – | – | – | – | –
22 | N-(6-{[({(1S)-1-[3,5-bis(trifluoromethyl)phenyl]ethyl}amino)carbothioyl]amino}-3-pyridinyl)-1,2,3-thiadiazole-4-carboxamide [Example 829] | – | – | – | – | 0.08 | >7.5
23 | N-{6-[({[1-(4-fluorophenyl)ethyl]amino}carbothioyl)amino]-3-pyridinyl}-1,2,3-thiadiazole-4-carboxamide [Example 828] | – | – | – | – | 0.45 | >7.5
